From patent US8802597B2, “Herbicidal pyrimidines” (E I du Pont de Nemours and Company, priority 2003, dated 2014)
Like-named read-outs stand apart in the source and are kept apart here.

Key:
Assay type in all cases: in vivo
[1] = system: bermudagrass (Cynodon dactylon); assay: Test C pre/postemergence
Source text: (§1) Seeds or nutlets of plant species selected from bermudagrass (Cynodon dactylon), Surinam grass (Brachiaria decumbens), cocklebur (Xanthium strumarium), corn (Zea mays), crabgrass (Digitaria sanguinalis), woolly cupgrass (Eriochloa villosa), giant foxtail (Setaria faberii), goosegrass (Eleusine indica), johnsongrass (Sorghum halepense), kochia (Kochia scoparia), lambsquarters (Chenopodium album), morningglory (Ipomoea coccinea), eastern black nightshade (Solanum ptycanthum), yellow nutsedge (Cyperus esculentus), pigweed (Amaranthus retroflexus), common ragweed (Ambrosia elatior), soybean (Glycine max), common (oilseed) sunflower (Helianthus annuus), and velvetleaf (Abutilon theophrasti) were planted and treated preemergence with test chemicals formulated in a non-phytotoxic solvent mixture which included a surfactant.
(§2) At the same time, plants selected from these crop and weed species and also winter barley (Hordeum vulgare), blackgrass (Alopecurus myosuroides), canarygrass (Phalaris minor), chickweed (Stellaria media), downy brome (Bromus tectorum), green foxtail (Setaria viridis), Italian ryegrass (Lolium multiflorum), wheat (Triticum aestivum), wild oat (Avena fatua) and windgrass (Apera spica-venti) were treated with postemergence applications of some of the test chemicals formulated in the same manner. Plants ranged in height from 2 to 18 cm (1- to 4-leaf stage) for postemergence treatments. Plant species in the flooded paddy test consisted of rice (Oryza sativa), umbrella sedge (Cyperus difformis), duck salad (Heteranthera limosa) and barnyardgrass (Echinochloa crus-galli) grown to the 2-leaf stage for testing. Treated plants and controls were maintained in a greenhouse for 12 to 14 days, after which time all species were compared to controls and visually evaluated. Plant response ratings, summarized in Table C, are based on a scale of 0 to 100 where 0 is no effect and 100 is complete control. A dash (-) response means no test result.

[2] = system: johnsongrass (Sorghum halepense); assay: Test C pre/postemergence
Source text: as §1, §2

[3] = system: giant foxtail (Setaria faberii); assay: Test C pre/postemergence
Source text: as §1, §2

[4] = system: soybean (Glycine max); assay: Test C pre/postemergence; details: for Plant response rating, Soybean: Preemergence, scale 0 to 100, 0 no effect, 100 complete control
Source text: as §1, §2

[5] = system: velvetleaf (Abutilon theophrasti); assay: Test A pre/postemergence
How it was run: (§3)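 After planting in loam and sand, species received test chemical as preemergence soil spray; postemergence spray went on 2–10 cm plants at 1–2 leaves at the same time. Evaluation: visual injury, ~10 d, 0 no effect to 100 complete control.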

[6] = system: crabgrass (Digitaria sanguinalis); assay: Test A pre/postemergence
How it was run: as §3

[7] = system: barnyardgrass (Echinochloa crus-galli); assay: Test A pre/postemergence
How it was run: as §3

[8] = system: redroot pigweed (Amaranthus retroflexus); assay: Test A pre/postemergence
How it was run: as §3

[9] = system: giant foxtail (Setaria faberi); assay: Test A pre/postemergence
How it was run: as §3

[10] = system: morningglory (Ipomoea spp.); assay: Test A pre/postemergence
How it was run: as §3

[11] = Postemergence, 125 g ai/ha, scale 0 to 100 (0 no effect, 100 complete control)
[12] = Preemergence, 16 g ai/ha, scale 0 to 100, 0 no effect, 100 complete control
[13] = Preemergence, 31 g ai/ha, scale 0 to 100, 0 no effect, 100 complete control
[14] = Preemergence, 62 g ai/ha, scale 0 to 100, 0 no effect, 100 complete control
[15] = Preemergence, 125 g ai/ha, scale 0 to 100
[16] = Postemergence, 125 g ai/ha, 0 to 100 scale (0 no effect, 100 complete control)
[17] = Postemergence, 500 g ai/ha, 0 to 100 scale (0 no effect, 100 complete control)
[18] = Preemergence, 125 g ai/ha, 0 to 100 scale where 0 is no effect and 100 is complete control, approximately ten days
[19] = Preemergence, 500 g ai/ha, 0 to 100 scale where 0 is no effect and 100 is complete control, approximately ten days

Nc1nc(-c2ccc(Cl)cc2)nc(C(=O)[O-])c1Cl.[Na+] [Compound 117]
Plant response rating (scale of 0 to 100), Bermudagrass ([1]; Postemergence, 16 g ai/ha): 60 | Plant response rating (scale of 0 to 100), Bermudagrass ([1]; Postemergence, 31 g ai/ha): 65 | Bermudagrass plant response rating ([1]; Postemergence, 62 g ai/ha, scale 0 to 100 (0 no effect, 100 complete control)): 85 | Bermudagrass plant response rating [1, 11]: 90 | Plant response rating, Bermudagrass [1, 12]: 0 | Plant response rating, Bermudagrass [1, 13]: 0 | Plant response rating, Bermudagrass [1, 14]: 30 | Plant response rating, Bermudagrass [1, 15]: 65 | Plant response rating (scale of 0 to 100), Johnsongrass ([2]; Postemergence, 16 g ai/ha): 10 | Plant response rating (scale of 0 to 100), Johnsongrass ([2]; Postemergence, 31 g ai/ha): 50 | Plant response rating (scale of 0 to 100), Johnsongrass ([2]; Postemergence, 62 g ai/ha): 50 | Johnsongrass plant response rating [2, 11]: 50 | Plant response rating, Johnsongrass [2, 12]: 0 | Plant response rating, Johnsongrass [2, 13]: 35 | Plant response rating, Johnsongrass [2, 14]: 60 | Plant response rating, Johnsongrass [2, 15]: 70 | Plant response rating (scale of 0 to 100), Foxtail, Giant ([3]; Postemergence, 16 g ai/ha): 50 | Plant response rating (scale of 0 to 100), Foxtail, Giant ([3]; Postemergence, 31 g ai/ha): 55 | Plant response rating (scale of 0 to 100), Foxtail, Giant ([3]; Postemergence, 62 g ai/ha): 70 | Foxtail, Giant plant response rating [3, 11]: 80 | Plant response rating, Foxtail, Giant [3, 12]: 0 | Plant response rating, Foxtail, Giant [3, 13]: 0 | Plant response rating, Foxtail, Giant [3, 14]: 5 | Plant response rating, Foxtail, Giant [3, 15]: 50 | Plant response rating (scale of 0 to 100), Soybean ([4]; Postemergence, 16 g ai/ha): 100 | Plant response rating (scale of 0 to 100), Soybean ([4]; Postemergence, 31 g ai/ha): 100 | Plant response rating (scale of 0 to 100), Soybean ([4]; Postemergence, 62 g ai/ha): 100 | Soybean plant response rating [4, 11]: 100 | Plant response rating, Soybean ([4]; 16 g ai/ha): 85 | Plant response rating, Soybean ([4]; 31 g ai/ha): 100 | Plant response rating, Soybean ([4]; 62 g ai/ha): 100 | Plant response rating, Velvetleaf [5, 16]: 100 | Plant response rating, Velvetleaf [5, 17]: 100 | Plant response rating, Velvetleaf [5, 18]: 55 | Plant response rating, Velvetleaf [5, 19]: 100 | Plant response rating, Crabgrass [6, 16]: 75 | Plant response rating, Crabgrass [6, 17]: 90 | Plant response rating, Crabgrass [6, 18]: 45 | Plant response rating, Crabgrass [6, 19]: 75 | Plant response rating, Barnyardgrass [7, 16]: 85 | Plant response rating, Barnyardgrass [7, 17]: 90 | Plant response rating, Barnyardgrass [7, 18]: 25 | Plant response rating, Barnyardgrass [7, 19]: 85 | Plant response rating, Pigweed [8, 16]: 100 | Plant response rating, Pigweed [8, 17]: 100 | Plant response rating, Pigweed [8, 18]: 65 | Plant response rating, Pigweed [8, 19]: 100 | Plant response rating, Foxtail, Giant [9, 16]: 80 | Plant response rating, Foxtail, Giant [9, 17]: 90 | Plant response rating, Foxtail, Giant [9, 18]: 50 | Plant response rating, Foxtail, Giant [9, 19]: 85 | Plant response rating, Morningglory [10, 16]: 90 | Plant response rating, Morningglory [10, 17]: 90 | Plant response rating, Morningglory [10, 18]: 10 | Plant response rating, Morningglory [10, 19]: 85

Nc1nc(C2CC2)nc(C(=O)O)c1Cl [Compound 135, 6-amino-5-chloro-2-cyclopropyl-4-pyrimidinecarboxylic acid]
pest or weed control at 16 g/ha ([1]; Cynodon dactylon, post-emergence, Postemergence, 16 g ai/ha, read-out: Plant response rating (scale of 0 to 100), Bermudagrass): 40% | pest or weed control at 62 g/ha ([1]; Cynodon dactylon, post-emergence, Postemergence, 62 g ai/ha, scale 0 to 100 (0 no effect, 100 complete control), read-out: Bermudagrass plant response rating): 60% | pest or weed control at 125 g/ha ([1]; Cynodon dactylon, post-emergence, Postemergence, 125 g ai/ha, scale 0 to 100 (0 no effect, 100 complete control), read-out: Bermudagrass plant response rating): 75% | pest or weed control at 16 g/ha ([1]; Cynodon dactylon, pre-emergence, Preemergence, 16 g ai/ha, scale 0 to 100, 0 no effect, 100 complete control, read-out: Plant response rating, Bermudagrass): 0% | Plant response rating, Bermudagrass [1, 13]: 0 | Plant response rating, Bermudagrass [1, 14]: 0 | Plant response rating, Bermudagrass [1, 15]: 0 | Plant response rating, Johnsongrass [2, 13]: 0 | Plant response rating, Johnsongrass [2, 14]: 5 | Plant response rating, Johnsongrass [2, 15]: 40 | pest or weed control at 16 g/ha ([2]; Sorghum halepense, post-emergence, Postemergence, 16 g ai/ha, read-out: Plant response rating (scale of 0 to 100), Johnsongrass): 15% | pest or weed control at 31 g/ha ([2]; Sorghum halepense, post-emergence, Postemergence, 31 g ai/ha, read-out: Plant response rating (scale of 0 to 100), Johnsongrass): 35% | pest or weed control at 62 g/ha ([2]; Sorghum halepense, post-emergence, Postemergence, 62 g ai/ha, read-out: Plant response rating (scale of 0 to 100), Johnsongrass): 65% | pest or weed control at 125 g/ha ([2]; Sorghum halepense, post-emergence, Postemergence, 125 g ai/ha, scale 0 to 100 (0 no effect, 100 complete control), read-out: Johnsongrass plant response rating): 70% | pest or weed control at 16 g/ha ([2]; Sorghum halepense, pre-emergence, Preemergence, 16 g ai/ha, scale 0 to 100, 0 no effect, 100 complete control, read-out: Plant response rating, Johnsongrass): 0% | Plant response rating, Foxtail, Giant [3, 13]: 0 | Plant response rating, Foxtail, Giant [3, 14]: 0 | Plant response rating, Foxtail, Giant [3, 15]: 0 | pest or weed control at 125 g/ha ([3]; Setaria faberi, post-emergence, Postemergence, 125 g ai/ha, scale 0 to 100 (0 no effect, 100 complete control), read-out: Foxtail, Giant plant response rating): 75% | pest or weed control at 16 g/ha ([3]; Setaria faberi, post-emergence, Postemergence, 16 g ai/ha, read-out: Plant response rating (scale of 0 to 100), Foxtail, Giant): 10% | pest or weed control at 31 g/ha ([3]; Setaria faberi, post-emergence, Postemergence, 31 g ai/ha, read-out: Plant response rating (scale of 0 to 100), Foxtail, Giant): 60% | pest or weed control at 62 g/ha ([3]; Setaria faberi, post-emergence, Postemergence, 62 g ai/ha, read-out: Plant response rating (scale of 0 to 100), Foxtail, Giant): 65% | pest or weed control at 16 g/ha ([3]; Setaria faberi, pre-emergence, Preemergence, 16 g ai/ha, scale 0 to 100, 0 no effect, 100 complete control, read-out: Plant response rating, Foxtail, Giant): 0% | plant injury at 16 g/ha ([4]; Glycine max, post-emergence, Postemergence, 16 g ai/ha, read-out: Plant response rating (scale of 0 to 100), Soybean): 100% | plant injury at 62 g/ha ([4]; Glycine max, post-emergence, Postemergence, 62 g ai/ha, read-out: Plant response rating (scale of 0 to 100), Soybean): 100% | plant injury at 125 g/ha ([4]; Glycine max, post-emergence, Postemergence, 125 g ai/ha, scale 0 to 100 (0 no effect, 100 complete control), read-out: Soybean plant response rating): 100% | Plant response rating, Soybean ([4]; 16 g ai/ha): 85 | Plant response rating, Soybean ([4]; 31 g ai/ha): 95 | Plant response rating, Soybean ([4]; 62 g ai/ha): 95 | Plant response rating, Velvetleaf [5, 16]: 85 | Plant response rating, Velvetleaf [5, 17]: 100 | Plant response rating, Velvetleaf [5, 18]: 80 | Plant response rating, Velvetleaf [5, 19]: 100 | Plant response rating, Crabgrass [6, 16]: 65 | Plant response rating, Crabgrass [6, 17]: 65 | Plant response rating, Crabgrass [6, 18]: 75 | Plant response rating, Crabgrass [6, 19]: 95 | Plant response rating, Barnyardgrass [7, 16]: 75 | Plant response rating, Barnyardgrass [7, 17]: 90 | Plant response rating, Barnyardgrass [7, 18]: 65 | Plant response rating, Barnyardgrass [7, 19]: 90 | Plant response rating, Pigweed [8, 16]: 90 | Plant response rating, Pigweed [8, 17]: 95 | Plant response rating, Pigweed [8, 18]: 85 | Plant response rating, Pigweed [8, 19]: 100 | Plant response rating, Foxtail, Giant [9, 16]: 75 | Plant response rating, Foxtail, Giant [9, 17]: 80 | Plant response rating, Foxtail, Giant [9, 18]: 30 | Plant response rating, Foxtail, Giant [9, 19]: 85 | Plant response rating, Morningglory [10, 16]: 90 | Plant response rating, Morningglory [10, 17]: 100 | Plant response rating, Morningglory [10, 18]: 95 | Plant response rating, Morningglory [10, 19]: 100
